# Laboratory results published in ChEMBL document CHEMBL2010682, “Asperolides A-C, tetranorlabdane diterpenoids from the marine alga-derived endophytic fungus Aspergillus wentii EN-48” (J Nat Prod, 2012).
# Calls of active or inactive are those of the source. The rule behind the calls is not given here.
# What was measured:
# HepG2 = assay: Cytotoxicity against human HepG2 cells; type: functional, cell-based
# NCI-H460 = assay: Cytotoxicity against human NCI-H460 cells; type: functional, cell-based
# MDA-MB-231 = assay: Cytotoxicity against human MDA-MB-231 cells; type: functional, cell-based
# Candida albicans = assay: Antifungal activity against Candida albicans after 18 hrs by broth microdilution method; type: functional
# SW1990 = assay: Cytotoxicity against human SW1990 cells; type: functional, cell-based
# HeLa = assay: Cytotoxicity against human HeLa cells; type: functional, cell-based
# MCF7 = assay: Cytotoxicity against human MCF7 cells; type: functional, cell-based
# SMMC-7721 = assay: Cytotoxicity against human SMMC7721 cells; type: functional, cell-based
# Pseudomonas aeruginosa = assay: Antibacterial activity against Pseudomonas aeruginosa after 18 hrs by broth microdilution method; type: functional
# Pseudomonas fluorescens = assay: Antibacterial activity against Pseudomonas fluorescens after 18 hrs by broth microdilution method; type: functional
# Staphylococcus aureus = assay: Antibacterial activity against methicillin-resistant Staphylococcus aureus after 18 hrs by broth microdilution method; type: functional
# [1] = tested on: Staphylococcus epidermidis; assay: Antibacterial activity against Staphylococcus epidermidis after 18 hrs by broth microdilution method; type: functional
# [2] = Homo sapiens, NCI-H460, read-out: IC50
# [3] = Homo sapiens, MDA-MB-231, read-out: IC50
# [4] = Homo sapiens, SW1990, read-out: IC50
# [5] = Homo sapiens, HeLa, read-out: IC50
# [6] = Homo sapiens, MCF7, read-out: IC50
# [7] = Homo sapiens, SMMC-7721, read-out: IC50
# [8] = Homo sapiens, HepG2, read-out: IC50
Molecule,IC50 (HepG2; hepg2),IC50 (NCI-H460; [2]) [µM],IC50 (MDA-MB-231; [3]) [µM],MIC (Candida albicans),IC50 (SW1990; [4]) [µM],IC50 (HeLa; [5]) [µM],IC50 (MCF7; [6]) [µM],IC50 (SMMC-7721; [7]) [µM],IC50 (HepG2; [8]) [µM],further results
C[C@]12C(=O)O[C@@H]3C=C4COC(=O)C=C4[C@@](C)(C=C[C@@H]1O)[C@@H]32,Not Active,42,42,16 µg/mL,63,63,38,,,
C=C1[C@@H](O)C[C@@H]2[C@](C)(CCC[C@]2(C)C(=O)O)[C@H]1CC(=O)O,Not Active,,,inactive,,,,,,IC50 (SMMC-7721; smmc-7721): Not Active; IC50 (NCI-H460; nci-h460): Not Active; IC50 (MDA-MB-231; mda-mb-231): Not Active; IC50 (SW1990; sw1990): Not Active; IC50 (HeLa; hela): Not Active; IC50 (MCF7; mcf7): Not Active
CC1(C)S[C@@H]2[C@H](NC(=O)[C@H](N)c3ccccc3)C(=O)N2[C@H]1C(=O)O [AMPICILLIN],,,,,,,,,,MIC (Pseudomonas aeruginosa): 4 µg/mL; MIC (Pseudomonas fluorescens): 2 µg/mL; MIC (Staphylococcus aureus): 8 µg/mL; MIC [1]: 4 µg/mL
C[C@]12C3=CC(=O)OCC3=C[C@H]3OC(=O)[C@@](C)(C=C[C@H]1O)[C@H]32 [ASPEROLIDE A],,42,,inactive,69,97,,52,63,IC50 (MCF7; mcf7): Not Active
C[C@@]12C3=CC(=O)OCC3=C[C@H]3OC(=O)[C@](C)([C@H]31)[C@H]1O[C@H]1[C@H]2O [ASPEROLIDE B],Not Active,63,35,,69,56,63,,,
COc1cccc2c1C(=O)c1c(O)c3c(c(O)c1C2=O)C[C@@](O)(C(=O)CO)C[C@@H]3O[C@H]1C[C@H](N)[C@H](O)[C@H](C)O1 [DOXORUBICIN],,,4,,,5,7,172,7,
O=c1[nH]cc(F)c(=O)[nH]1 [FLUOROURACIL],,8,62,,123,108,,15,108,
C[C@@]12C3=CC(=O)OCC3=C[C@H]3OC(=O)[C@](C)([C@H]31)[C@@H](O)[C@H]1O[C@H]12 [WENTILACTONE A],,28,,inactive,42,52,69,28,35,
C[C@@]12C[C@@H](O)C[C@]3(C)C4=CC(=O)OCC4=C[C@@H](OC1=O)[C@@H]23 [WENTILACTONE B],,24,,inactive,24,42,56,17,38,
NYSTATIN,,,,2 µg/mL,,,,,,
